The numbers were not newly measured in US20050107420A1 (Boehringe Ingelheim Pharma GmbH & Co. KG, priority 2002, published 2005), which cites them from elsewhere.

The conditions of data set [1]: human, in vivo.
The conditions of data set [2]: in vivo.
The subject of the next data set is PDE4B mutant enzyme. The note with it: alanine for aspartate substitution.
The conditions of data set [3]: rat.
The test system of data set [4] is catalytic site (Sc) of PDE4.
Test in data set [5]: not given
The source holds these as a separate data set.

For data set [6] the following is noted: oral administration, clinical conditions.
Data set [7] deals with TNF release and lymphocyte proliferation. To be noted: oral dose of 300 mg.
A further data set has as its target PDE4D isoform (Homo sapiens, UniProt Q08499).
The conditions of data set [8]: in vivo. This is another data set of the same source.
For data set [9] the following is noted: antigen-challenged pig.
The conditions of data set [10]: guinea-pig.
Data set [11] concerns PDE4 derived from tumor cells. The note with it: read-out: IC50 against a PDE4 derived from tumor cells.
The test system of another data set is tumor cells. The note with it: micromolar concentrations.

Molecules are shown by their SMILES.

PDE4D isoform, sequence (Q08499 whole entry, canonical isoform): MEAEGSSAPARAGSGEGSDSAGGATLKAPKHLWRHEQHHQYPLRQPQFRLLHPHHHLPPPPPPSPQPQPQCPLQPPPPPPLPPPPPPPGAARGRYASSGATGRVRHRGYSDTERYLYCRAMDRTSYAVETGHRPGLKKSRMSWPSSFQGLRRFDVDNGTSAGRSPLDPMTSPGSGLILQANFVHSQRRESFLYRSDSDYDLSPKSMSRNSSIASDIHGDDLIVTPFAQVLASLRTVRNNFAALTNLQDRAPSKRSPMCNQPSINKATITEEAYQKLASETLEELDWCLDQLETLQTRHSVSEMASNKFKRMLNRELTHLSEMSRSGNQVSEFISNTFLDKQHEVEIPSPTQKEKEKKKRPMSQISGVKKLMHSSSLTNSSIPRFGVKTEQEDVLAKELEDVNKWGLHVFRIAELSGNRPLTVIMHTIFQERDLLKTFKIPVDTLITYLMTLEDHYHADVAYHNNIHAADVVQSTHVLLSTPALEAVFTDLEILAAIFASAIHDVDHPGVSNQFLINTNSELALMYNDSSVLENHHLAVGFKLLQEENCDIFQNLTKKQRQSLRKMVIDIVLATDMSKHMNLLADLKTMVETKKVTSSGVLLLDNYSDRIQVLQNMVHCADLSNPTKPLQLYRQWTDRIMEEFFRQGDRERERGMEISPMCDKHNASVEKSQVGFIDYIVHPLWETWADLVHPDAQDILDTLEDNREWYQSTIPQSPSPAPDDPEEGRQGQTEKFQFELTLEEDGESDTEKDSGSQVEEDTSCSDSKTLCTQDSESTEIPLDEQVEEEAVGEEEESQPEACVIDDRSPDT

In the case of `Cn1c(=O)c2[nH]cnc2n(C)c1=O` [theophylline], the “neutrophil counts in the sputum of COPD patients” value in [1] was “reduces neutrophil counts”.
For `CCOc1cc2cc(C(=O)O)sc2cc1OCC` [tibenelast], in data set [2], the bronchodilation result is given as “Unsatisfactory results”.
On to `COc1ccc(CC2CNC(=O)N2)cc1OC1CCCC1` (centres unmarked) [Ro-20-1724], for which the “potency on the mutant PDE4B enzyme” value in the data set on PDE4B mutant enzyme is “lose potency”.
For `COc1cc2c3c(c1)C(c1ccccc1)=N[C@@H](NC(=O)c1cc4ccccc4cn1)C(=O)N3CC2` [CI-1018], the “oral potency, ED50” value in data set [3] was 5 mg/kg.
As to `CCCOc1ccccc1-c1nc2[nH]nnc2c(=O)[nH]1` [zaprinast], in data set [2], the bronchodilation result was “Unsatisfactory results”.
Turning to `COc1ccc([C@H](Cc2ccncc2)c2ccccc2)cc1OC1CCCC1` [CDP840], for the setting “9.5 days oral administration, 15 and 30 mg, patients with bronchial asthma”, the “late reactions to inhaled allergen” value is “suppression of late reactions to inhaled allergen”. The “late-phase response in the treatment of asthma” value (human, in vivo) is recorded as “significant inhibition”. The “potency at the Sc” value in data set [4] is recorded as “significantly higher potency at the Sc than does SB-207,499”.
With `C[N+]1(C)C2CC(OC(=O)C(O)(c3cccs3)c3cccs3)CC1C1OC12` (stereo not drawn) [tiotropium, (1α, 2β, 4β, 5α, 7β)-7-[(hydroxydi-2-thienylacetyl)oxy]-9,9-dimethyl-3-oxa-9-azoniatricyclo[3.3.1.0^2,4]nonane bromide], in [5] (in vivo), the duration of action entry was “prolonged duration of action”.
Take `COc1cc2c(cc1OC)[C@@H]1CN(C)CC[C@@H]1N=C2c1ccc(NC(C)=O)cc1` [benafentrine]: the bronchodilation result in [2] is listed as “bronchodilation only when administered by inhalation”.
Turning to `CSc1ccc(C(=O)c2[nH]c(=O)[nH]c2C)cc1` [enoximone], in data set [6], the “mean pulmonary artery pressure” value is listed as “decreases in mean pulmonary artery pressure”.
Take `CCNc1ncn(Cc2ccc(OC)c(OC3CCCC3)c2)c2nc(C(C)C)nc1-2` [Formula V-11294A]: the “TNF levels and lymphocyte proliferation ex vivo” value in [7] was “effective in reducing TNF levels and lymphocyte proliferation”.
As to `O=c1c2cccnc2n(-c2cccc([N+](=O)[O-])c2)c(=O)n1Cc1ccncc1` [RS-25,344], on PDE4D isoform, the “potency or selectivity for PDE4D relative to other subtypes, in words” value was “more potent against PDE4D”.
With `COc1cc(-c2ccc(=O)[nH]n2)ccc1OC(F)F` [zardaverine], the bronchodilation entry in data set [2] was “only a modest and short-lived bronchodilation”.
Regarding `O=C(NCc1ccccc1Cl)c1cccnc1Oc1ccc(F)cc1` [Formula (0.1.58)], the “selectivity for inhibition of the PDE4D isoform” value at PDE4D isoform is on record as 100 fold.
`COc1ccc(C2CNC(=O)NC2)cc1OC1CC2CCC1C2` (centres unmarked) [CP-80,633]: the “emesis, nausea and vomiting” value in [8] is recorded as “elicit emesis”.
As for `COc1ccc(C2CNC(=O)C2)cc1OC1CCCC1` (centres unmarked) [rolipram], in the data set on gastric parietal cells, the “stimulation of acid secretion from gastric parietal cells” value was “very potent stimulator”. Further, in the data set on PDE4B mutant enzyme, the “potency on the mutant PDE4B enzyme” value was “lose potency”.
`CCCn1c(=O)c2c(C)nc(CC)n2c2nc(OC)ccc21` [Formula D-22888]: in data set [9], the anti-allergic effect result is “strong anti-allergic affect” and the rhinorrhea entry is listed as “inhibit rhinorrhea”.
Take `COc1ccc(C(=O)Nc2c(Cl)cncc2Cl)cc1OC1CCCC1` [RP-73,401]: the “potency on the mutant PDE4B enzyme” value with PDE4B mutant enzyme is “lose potency”. Also, in data set [10], the “inhibition of antigen-induced airway eosinophilia and PAF- and ozone-induced airway hyper-responsiveness (AHR)” value is “active”; the “inhibition of antigen-induced bronchoalveolar lavage (BAL) eosinophilia” value is listed as “active”; the “inhibition of antigen-induced lung eosinophilia and eosinophil peroxidase (EPO)” value was “active”.
With `N#Cc1cccc(-c2nc(-c3ccc(C(=O)O)cc3)cc3cccnc23)c1` [Formula (0.1.59)], the “potency or selectivity for PDE4D relative to other subtypes, in words” value on PDE4D isoform is on record as “PDE4D selective inhibitor”.
For `COc1ccc([C@@H](Cc2ccncc2)c2ccccc2)cc1OC1CCCC1` [CT-1731], the “elevation of cAMP, activity relative to enantiomer CDP840” value with cAMP is listed as “less active”.
In the case of `CC[N+]1(C)[C@@H]2CC(OC(=O)[C@H](CO)c3ccccc3)C[C@H]1[C@@H]1O[C@@H]12` (some centres unmarked) [oxitropium], the “change in heart rate, blood pressure, bladder function, intraocular pressure, or pupillary diameter” value in [5] (inhaled at several times the recommended dose) is “little or no change”.
Consider `Clc1nc2c(N3CCCC3)nc(C3CCNCC3)nc2nc1NCc1ccccc1` [Formula (0.1.55)], for which, in data set [11], the IC50 (in general, the concentration that inhibits the measured activity by half) was 16 nM. In addition, the “inhibition of the growth of tumor cells” value with tumor cells is reported as “inhibit the growth of tumor cells at micromolar concentrations”.
